Measured values taken from publication PMC7326275 (PLoS Pathogens, 2020).
Several values for one entry are separate records, joined by “and”; a condition that tells them apart may be missing. Identical values can stand only once. Like-named read-outs stand apart in the source and are kept apart here. Marks after values point to notes of the source that are not given here.

Key:
H1N1pdm09 virus = type: in vivo
[1] = tested on: nine different influenza viruses; experiment: animal or person; type: in vivo; conditions: Mustela putorius, estimated from non-linear regression model, ferrets
[2] = tested on: H1N1pdm09 virus (A/Perth/265/2009); type: in vivo
[3] = tested on: influenza NA protein (nine different influenza viruses); experiment: Fluorometric NA inhibition assay, summary over viruses
[4] = tested on: H3N2 virus (A/Fukui/20/2004); type: in vivo
[5] = tested on: B virus (B/Minnesota/23/2015); type: in vivo
[6] = tested on: H1N1 virus (A/Mississippi/3/2001); type: in vivo
[7] = B, OST dosed ferrets, maximum loss from baseline

## CCOC(=O)C1=C[C@@H](OC(CC)CC)[C@H](NC(C)=O)[C@@H](N)C1 [OST, oseltamivir]
H1N1pdm09 virus; H1N1pdm09, macaques, OST 3 mg/kg orally
  body weight or temperature, OST- vs placebo-treated animals: no significant differences
H1N1pdm09 virus; cynomolgus monkey, in vivo
  viral titre lower in tracheal lavages of OST dosed macaques compared to placebo: 1.9 logs
  viral titres in nasal wash and tracheal lavages, OST vs placebo: not significantly different
[1]; read-out: IC50 corresponding to a 50% reduction in OST efficacy against viral shedding
  IC50: 14.6 nM
[1]; read-out: IC50 corresponding to a 90% loss in oseltamivir efficacy against viral shedding
  IC50: 68.2 nM
[2]; H1N1pdm09, OST dosed ferrets
  Total Score (clinical signs): 6
[2]; H1N1pdm09, OST dosed ferrets, maximum increase from baseline
  Temperature clinical score: 2 (1.5–2.0)
[2]; H1N1pdm09, OST dosed ferrets, maximum loss from baseline
  Activity loss clinical score: 1 (21–40)
[2]; H1N1pdm09, OST dosed ferrets, nasal wash, maximum cell count
  Nasal inflammation Cell score: 1 (1 to 2 x10^6)
[2]; H1N1pdm09, OST dosed ferrets, nasal wash, maximum protein concentration
  Nasal inflammation Protein score: 2 (1001–1500)
[2]; H1N1pdm09, ferrets
  difference in %AUC for activity levels (OST vs placebo): 53%
[2]; H1N1pdm09, ferrets, OST 5 mg/kg twice daily
  Duration of Shedding: 3.5 ± 0.7 days
[2]; H1N1pdm09, ferrets, OST 5 mg/kg twice daily, mean ± SD
  AUC (total area under the viral shedding curve, raw data): 9.3 ± 12.7
[2]; H1N1pdm09, ferrets, nasal wash
  difference in %AUC for protein concentration (OST vs placebo): 56%
[2]; in vivo
  % Ferrets Infected: 50% and 50 (2/4) %
  Peak Viral Titre: 4.2 ± 0.9 Log10 TCID50/ml
  Weight loss clinical score: 0
  difference in %AUC for weight change (OST vs placebo): 4.9%
[3]; read-out: OST IC50 values, range over nine different influenza viruses, nine viruses of the ferret study
  IC50: 0.2 to 414 nM
[3]; read-out: normal IC50 values of wild-type influenza A viruses, wild-type influenza A viruses
  IC50: ~1 nM
[4]; H3N2, OST dosed ferrets
  Total Score (clinical signs): 1
[4]; H3N2, OST dosed ferrets, maximum increase from baseline
  Temperature clinical score: 0 (<1)
[4]; H3N2, OST dosed ferrets, maximum loss from baseline
  Activity loss clinical score: 1 (21–40)
[4]; H3N2, OST dosed ferrets, nasal wash, maximum cell count
  Nasal inflammation Cell score: 0 (<1X10^6)
[4]; H3N2, OST dosed ferrets, nasal wash, maximum protein concentration
  Nasal inflammation Protein score: 0 (<500)
[4]; H3N2, ferrets, OST 5 mg/kg twice daily
  Duration of Shedding: 2.0 ± 0.8 days
[4]; H3N2, ferrets, OST 5 mg/kg twice daily, mean ± SD
  AUC (total area under the viral shedding curve, raw data): 3.0 ± 3.7
[4]; in vivo
  % Ferrets Infected: 50 (4/8) %
  Peak Viral Titre: 3.0 ± 0.8 Log10 TCID50/ml
  Weight loss clinical score: 0
  ferrets prevented from shedding infectious virus: 50%
  reduction of %AUC for cell counts (OST vs placebo): 69.2%
  reduction of %AUC for protein concentration (OST vs placebo): 52.4%
[5]; B, OST dosed ferrets
  Total Score (clinical signs): 3
[5]; B, OST dosed ferrets, maximum increase from baseline
  Temperature clinical score: 0 (<1)
[5]; [7]
  Activity loss clinical score: 1 (21–40)
  Weight loss clinical score: 0
[5]; B, OST dosed ferrets, nasal wash, maximum cell count
  Nasal inflammation Cell score: 1 (1 to 2 x10^6)
[5]; B, OST dosed ferrets, nasal wash, maximum protein concentration
  Nasal inflammation Protein score: 1 (500–1000)
[5]; B, ferrets, OST 5 mg/kg orally twice daily
  % Ferrets Infected: 100 (4/4) %
[5]; B, ferrets, OST 5 mg/kg twice daily
  Duration of Shedding: 5.5 ± 0.6 days
[5]; B, ferrets, OST 5 mg/kg twice daily, mean ± SD
  AUC (total area under the viral shedding curve, raw data): 12.9 ± 1.9
[5]; in vivo
  Peak Viral Titre: 3.7 ± 0.4 Log10 TCID50/ml
[6]; H1N1, OST dosed ferrets
  Total Score (clinical signs): 3
[6]; H1N1, OST dosed ferrets, maximum increase from baseline
  Temperature clinical score: 1 (1.1–1.5)
[6]; H1N1, OST dosed ferrets, maximum loss from baseline
  Activity loss clinical score: 1 (21–40)
[6]; H1N1, OST dosed ferrets, nasal wash, maximum cell count
  Nasal inflammation Cell score: 1 (1 to 2 x10^6)
[6]; H1N1, OST dosed ferrets, nasal wash, maximum protein concentration
  Nasal inflammation Protein score: 0 (<500)
[6]; H1N1, ferrets
  difference in %AUC for weight (OST vs placebo): 2.5%
[6]; H1N1, ferrets, OST 5 mg/kg twice daily
  Duration of Shedding: 0.0 ± 0.0 days
[6]; H1N1, ferrets, OST 5 mg/kg twice daily, mean ± SD
  AUC (total area under the viral shedding curve, raw data): 0.0 ± 0.0
[6]; H1N1, ferrets, nasal wash
  difference in %AUC for cell count (OST vs placebo): 67%
  difference in %AUC for protein concentration (OST vs placebo): 74%
[6]; in vivo
  % Ferrets Infected: 0 (0/4) %
  Weight loss clinical score: 0
  activity levels of OST dosed ferrets: fluctuated around pre-exposure baseline levels
  ferrets infected (number infected/number exposed): 0/4
